Reference: patent US7851474B2, “Dipiperazinyl ketones and related analogues” (Neurogen Corporation, priority 2005, dated 2010)

target: T1, chimeric human H3 receptor (Homo sapiens, UniProt Q9Y5N1, E19D); assay: Chimeric human H3 receptor GTP binding assay (agonist-stimulated GTP-gamma35S binding, Example 7); type: biochemical; details: Table II; assay of Example 7; "*" in Ki; read-out: Ki
T1 construct: made in house; host or cells: Sf9 insect cells (baculovirus infection); P2 membrane preparation
Procedure, shortened: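 Sf9 membranes co-expressing the chimeric receptor and heterotrimeric G-protein subunits, 35 μg protein per tube, in pH 7.4 Tris buffer with 10 μM GDP. Test compounds at 10^−10 to 10^−6 M with 1 μM histamine, 60 min at room temperature. Filter-bound GTP-gamma^35S read by scintillation; IC50 from non-linear regression of dose-response curves.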

T1 sequence (Q9Y5N1 with tags, fused parts or gaps E19D): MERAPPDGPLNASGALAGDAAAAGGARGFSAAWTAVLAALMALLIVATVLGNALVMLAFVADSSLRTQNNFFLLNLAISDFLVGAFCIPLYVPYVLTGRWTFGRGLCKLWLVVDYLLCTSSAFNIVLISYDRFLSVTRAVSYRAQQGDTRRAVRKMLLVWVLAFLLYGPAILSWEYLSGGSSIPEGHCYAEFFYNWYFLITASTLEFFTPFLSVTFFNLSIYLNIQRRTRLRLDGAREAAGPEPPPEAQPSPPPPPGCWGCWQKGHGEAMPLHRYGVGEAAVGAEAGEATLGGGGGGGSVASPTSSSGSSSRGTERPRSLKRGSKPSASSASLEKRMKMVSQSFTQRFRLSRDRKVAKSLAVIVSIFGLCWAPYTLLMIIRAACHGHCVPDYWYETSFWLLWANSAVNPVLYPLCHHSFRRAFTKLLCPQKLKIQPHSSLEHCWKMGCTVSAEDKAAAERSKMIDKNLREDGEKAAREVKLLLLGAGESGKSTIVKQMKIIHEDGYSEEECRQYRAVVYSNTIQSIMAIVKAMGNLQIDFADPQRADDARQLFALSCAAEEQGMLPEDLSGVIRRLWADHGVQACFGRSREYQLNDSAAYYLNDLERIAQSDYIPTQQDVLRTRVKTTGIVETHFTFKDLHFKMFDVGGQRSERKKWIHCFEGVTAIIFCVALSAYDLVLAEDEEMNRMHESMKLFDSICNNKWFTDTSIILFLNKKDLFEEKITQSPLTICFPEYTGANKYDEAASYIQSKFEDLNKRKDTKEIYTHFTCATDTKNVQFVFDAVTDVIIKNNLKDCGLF

| Ki [nM] | Structure (SMILES) |
| --- | --- |
| < 1000 | O=C(CN1CCN(c2ccc(-c3ccncc3)nn2)CC1)N1CCN(C2CCC2)CC1 [Compound 1000, 3-{4-[2-(4-cyclobutylpiperazin-1-yl)-2-oxoethyl]piperazin-1-yl}-6-pyridin-4-ylpyridazine] |
| < 1000 | O=C(CN1CCN(c2ccc(-c3ccccc3)nn2)CC1)N1CCN(C2CCC2)CC1 [Compound 1002, 3-{4-[2-(4-cyclobutylpiperazin-1-yl)-2-oxoethyl]piperazin-1-yl}-6-phenylpyridazine] |
| < 1000 | O=C(CN1CCN(c2ccc(-c3ccc(F)cc3)nn2)CC1)N1CCN(C2CCC2)CC1 [Compound 1003, 3-{4-[2-(4-cyclobutylpiperazin-1-yl)-2-oxoethyl]piperazin-1-yl}-6-(4-fluorophenyl)pyridazine] |
| < 1000 | O=C(CN1CCN(c2ccc(-c3cccc(F)c3)nn2)CC1)N1CCN(C2CCC2)CC1 [Compound 1004, 3-{4-[2-(4-cyclobutylpiperazin-1-yl)-2-oxoethyl]piperazin-1-yl}-6-(3-fluorophenyl)pyridazine] |
| < 1000 | O=C(CN1CCN(c2ccc(-c3ccccc3F)nn2)CC1)N1CCN(C2CCC2)CC1 [Compound 1005, 3-{4-[2-(4-cyclobutylpiperazin-1-yl)-2-oxoethyl]piperazin-1-yl}-6-(2-fluorophenyl)pyridazine] |
| < 1000 | Cc1ccc(-c2ccc(N3CCN(CC(=O)N4CCN(C5CCC5)CC4)CC3)nn2)c(F)c1 [Compound 1007, 3-{4-[2-(4-cyclobutylpiperazin-1-yl)-2-oxoethyl]piperazin-1-yl}-6-(2-fluoro-4-methylphenyl)pyridazine] |
| < 1000 | Cc1ccc(F)c(-c2ccc(N3CCN(CC(=O)N4CCN(C5CCC5)CC4)CC3)nn2)c1 [Compound 1008, 3-{4-[2-(4-cyclobutylpiperazin-1-yl)-2-oxoethyl]piperazin-1-yl}-6-(2-fluoro-5-methylphenyl)pyridazine] |
| < 1000 | Cc1ccc(-c2ccc(N3CCN(CC(=O)N4CCN(C5CCC5)CC4)CC3)nn2)cc1F [Compound 1009, 3-{4-[2-(4-cyclobutylpiperazin-1-yl)-2-oxoethyl]piperazin-1-yl}-6-(3-fluoro-4-methylphenyl)pyridazine] |
| < 1000 | Cc1cc(-c2ccc(N3CCN(CC(=O)N4CCN(C5CCC5)CC4)CC3)nn2)ccc1F [Compound 1010, 3-{4-[2-(4-cyclobutylpiperazin-1-yl)-2-oxoethyl]piperazin-1-yl}-6-(4-fluoro-3-methylphenyl)pyridazine] |
| < 1000 | Cc1cccc(-c2ccc(N3CCN(CC(=O)N4CCN(C5CCC5)CC4)CC3)nn2)c1 [Compound 1011, 3-{4-[2-(4-cyclobutylpiperazin-1-yl)-2-oxoethyl]piperazin-1-yl}-6-(3-methylphenyl)pyridazine] |
| < 1000 | Cc1ccc(-c2ccc(N3CCN(CC(=O)N4CCN(C5CCC5)CC4)CC3)nn2)cc1 [Compound 1012, 3-{4-[2-(4-cyclobutylpiperazin-1-yl)-2-oxoethyl]piperazin-1-yl}-6-(4-methylphenyl)pyridazine] |
| < 1000 | COc1cccc(-c2ccc(N3CCN(CC(=O)N4CCN(C5CCC5)CC4)CC3)nn2)c1 [Compound 1020, 3-{4-[2-(4-cyclobutylpiperazin-1-yl)-2-oxoethyl]piperazin-1-yl}-6-(3-methoxyphenyl) pyridazine] |
| < 1000 | CSc1cccc(-c2ccc(N3CCN(CC(=O)N4CCN(C5CCC5)CC4)CC3)nn2)c1 [Compound 1025, 3-{4-[2-(4-cyclobutylpiperazin-1-yl)-2-oxoethyl]piperazin-1-yl}-6-[3-(methylthio)phenyl] pyridazine] |
| < 1000 | COc1ccc(-c2ccc(N3CCN(CC(=O)N4CCN(C5CCC5)CC4)CC3)nn2)cc1F [Compound 1027, 3-{4-[2-(4-cyclobutylpiperazin-1-yl)-2-oxoethyl]piperazin-1-yl}-6-(3-fluoro-4-methoxyphenyl) pyridazine] |

The next lines start with the compound.

| Structure (SMILES) | Ki [nM] |
| --- | --- |
| O=C(CN1CCN(c2ccc(-c3cc(C(F)(F)F)cc(C(F)(F)F)c3)nn2)CC1)N1CCN(C2CCC2)CC1 [Compound 998, 3-[3,5-bis(trifluoromethyl)phenyl]-6-{4-[2-(4-cyclobutylpiperazin-1-yl)-2-oxoethyl]piperazin-1-yl}pyridazine] | < 1000 |
| COc1ccc(N2CCN(CC(=O)N3CCN(C4CCC4)CC3)CC2)nn1 [Compound 999, 3-{4-[2-(4-cyclobutylpiperazin-1-yl)-2-oxoethyl]piperazin-1-yl}-6-methoxypyridazine] | < 1000 |
| O=C(CN1CCN(c2ccc(-c3cncnc3)nn2)CC1)N1CCN(C2CCC2)CC1 [Compound 1001, 3-{4-[2-(4-cyclobutylpiperazin-1-yl)-2-oxoethyl]piperazin-1-yl}-6-pyrimidin-5-ylpyridazine] | < 1000 |
| O=C(CN1CCN(c2ccc(-c3ccc4ccccc4c3)nn2)CC1)N1CCN(C2CCC2)CC1 [Compound 1006, 3-{4-[2-(4-cyclobutylpiperazin-1-yl)-2-oxoethyl]piperazin-1-yl}-6-(2-naphthyl)pyridazine] | < 1000 |
| CC(C)c1cccc(-c2ccc(N3CCN(CC(=O)N4CCN(C5CCC5)CC4)CC3)nn2)c1 [Compound 1013, 3-{4-[2-(4-cyclobutylpiperazin-1-yl)-2-oxoethyl]piperazin-1-yl}-6-(3-isopropylphenyl) pyridazine] | < 1000 |
| CC(C)c1ccc(-c2ccc(N3CCN(CC(=O)N4CCN(C5CCC5)CC4)CC3)nn2)cc1 [Compound 1014, 3-{4-[2-(4-cyclobutylpiperazin-1-yl)-2-oxoethyl]piperazin-1-yl}-6-(4-isopropylphenyl) pyridazine] | < 1000 |
| Cc1ccc(-c2ccc(N3CCN(CC(=O)N4CCN(C5CCC5)CC4)CC3)nn2)cc1C [Compound 1015, 3-{4-[2-(4-cyclobutylpiperazin-1-yl)-2-oxoethyl]piperazin-1-yl}-6-(3,4-dimethylphenyl) pyridazine] | < 1000 |
| Cc1cc(C)cc(-c2ccc(N3CCN(CC(=O)N4CCN(C5CCC5)CC4)CC3)nn2)c1 [Compound 1016, 3-{4-[2-(4-cyclobutylpiperazin-1-yl)-2-oxoethyl]piperazin-1-yl}-6-(3,5-dimethylphenyl) pyridazine] | < 1000 |
| CCc1ccc(-c2ccc(N3CCN(CC(=O)N4CCN(C5CCC5)CC4)CC3)nn2)cc1 [Compound 1017, 3-{4-[2-(4-cyclobutylpiperazin-1-yl)-2-oxoethyl]piperazin-1-yl}-6-(4-ethylphenyl)pyridazine] | < 1000 |
| CCCc1ccc(-c2ccc(N3CCN(CC(=O)N4CCN(C5CCC5)CC4)CC3)nn2)cc1 [Compound 1018, 3-{4-[2-(4-cyclobutylpiperazin-1-yl)-2-oxoethyl]piperazin-1-yl}-6-(4-propylphenyl)pyridazine] | < 1000 |
| CCc1cccc(-c2ccc(N3CCN(CC(=O)N4CCN(C5CCC5)CC4)CC3)nn2)c1 [Compound 1019, 3-{4-[2-(4-cyclobutylpiperazin-1-yl)-2-oxoethyl]piperazin-1-yl}-6-(3-ethylphenyl)pyridazine] | < 1000 |
| O=C(CN1CCN(c2ccc(-c3ccc(OC(F)(F)F)cc3)nn2)CC1)N1CCN(C2CCC2)CC1 [Compound 1021, 3-{4-[2-(4-cyclobutylpiperazin-1-yl)-2-oxoethyl]piperazin-1-yl}-6-[4-(trifluoromethoxy)phenyl] pyridazine] | < 1000 |
| CCOc1cccc(-c2ccc(N3CCN(CC(=O)N4CCN(C5CCC5)CC4)CC3)nn2)c1 [Compound 1022, 3-{4-[2-(4-cyclobutylpiperazin-1-yl)-2-oxoethyl]piperazin-1-yl}-6-(3-ethoxyphenyl)pyridazine] | < 1000 |
| O=C(CN1CCN(c2ccc(-c3cccc(OC(F)(F)F)c3)nn2)CC1)N1CCN(C2CCC2)CC1 [Compound 1024, 3-{4-[2-(4-cyclobutylpiperazin-1-yl)-2-oxoethyl]piperazin-1-yl}-6-[3-(trifluoromethoxy)phenyl} pyridazine] | < 1000 |
| COc1ccc(-c2ccc(-c3ccc(N4CCN(CC(=O)N5CCN(C6CCC6)CC5)CC4)nn3)cc2)cc1 [Compound 1026, 3-{4-[2-(4-cyclobutylpiperazin-1-yl)-2-oxoethyl]piperazin-1-yl}-6-(4′-methoxybiphenyl-4-yl)pyridazine] | < 1000 |
| COc1cc(F)c(-c2ccc(N3CCN(CC(=O)N4CCN(C5CCC5)CC4)CC3)nn2)cc1F [Compound 1028, 3-{4-[2-(4-cyclobutylpiperazin-1-yl)-2-oxoethyl]piperazin-1-yl}-6-(2,5-difluoro-4-methoxyphenyl) pyridazine] | < 1000 |
| COc1ccc2cc(-c3ccc(N4CCN(CC(=O)N5CCN(C6CCC6)CC5)CC4)nn3)ccc2c1 [Compound 1029, 3-{4-[2-(4-cyclobutylpiperazin-1-yl)-2-oxoethyl]piperazin-1-yl}-6-(6-methoxy-2-naphthyl)pyridazine] | < 1000 |
| CC(C)Oc1cccc(-c2ccc(N3CCN(CC(=O)N4CCN(C5CCC5)CC4)CC3)nn2)c1 [Compound 1030, 3-{4-[2-(4-cyclobutylpiperazin-1-yl)-2-oxoethyl]piperazin-1-yl}-6-(3-isopropoxyphenyl) pyridazine] | < 1000 |
| COc1cc(-c2ccc(N3CCN(CC(=O)N4CCN(C5CCC5)CC4)CC3)nn2)cc(OC)c1OC [Compound 1031, 3-{4-[2-(4-cyclobutylpiperazin-1-yl)-2-oxoethyl]paperazin-1-yl}-6-(3,4,5-trimethoxyphenyl) pyridazine] | < 1000 |
| COc1ccc(-c2ccc(N3CCN(CC(=O)N4CCN(C5CCC5)CC4)CC3)nn2)cc1 [Compound 1032, 3-{4-[2-(4-cyclobutylpiperazin-1-yl)-2-oxoethyl]piperazin-1-yl}-6-(4-methoxyphenyl) pyridazine] | < 1000 |
| COc1ccc(-c2ccc(N3CCN(CC(=O)N4CCN(C5CCC5)CC4)CC3)nn2)cc1OC [Compound 1033, 3-{4-[2-(4-cyclobutylpiperazin-1-yl)-2-oxoethyl]piperazin-1-yl}-6-(3,4-dimethoxyphenyl) pyridazine] | < 1000 |
